Entries after “also recorded” stand apart in the source; their conditions may differ.
Key:
[1] = Blood pharmacokinetics of i.v. injected T7 phage in cisterna magna cannulated rats (plaque counting); type: in vivo, rat
Source text: (§1) The cisterna magna (CM) was cannulated using modification of methods previously described. Anesthetized Wistar rats (200–350 g) were mounted onto a stereotaxic device and a median incision was made on the top of the shaved and aseptically prepared skin of head to expose the skull. Two holes were drilled at the parietal region and mounting screws were secured in the holes. An additional hole was drilled at the external occipital crest and used to stereotactically guide the stainless steel cannula into the CM. Dental cement was applied around the cannula and the screws to hold it in place. After light curing and solidification of the cement, the skin wound was sutured with a 4/0 supramid yarn. Correct placement of the cannula is confirmed by spontaneous flow of cerebrospinal fluid (CSF). The rats were removed from the stereotaxic apparatus, received appropriate post-operative care and analgesic treatment and allowed to recover for at least one week until no sign of blood in the CSF was observed. Wistar rats (Crl:WI/Han) were obtained from Charles River (France). All rats were kept under specific pathogen-free conditions. All animal experiments were approved by the Swiss Veterinary Office Basel-Stadt and were carried out in accordance with the animal permission #2474 (Assessment of active brain transport by measuring the level of therapeutic candidates in the rat CSF and brain).
The CM cannulated conscious rats were gently held in the hand. The mandrain was pulled out of the cannula and 10ul of the spontaneous flowing CSF was collected. […]
The amplified phages underwent 2–3 rounds of endotoxin removal using endotoxin removal beads (Miltenyi Biotec) before intravenous (i.v.) injection (500 ul/animal). […] The phage contents in the CSF and blood samples harvested at the indicated time-points were determined by a plaque counting assay according to the manufacturer’s instructions (T7Select System Manual). […] A total of four rounds of in vivo panning were performed in which two selection branches were kept and analyzed separately during the first three selection rounds. […]

[2] = CSF sampling model: phage recovered from CSF of cisterna magna cannulated conscious rats after i.v. injection (plaque counting); type: in vivo, rat
Source text: as §1
The CM cannulated conscious rats were gently held in the hand. The mandrain was pulled out of the cannula and 10ul of the spontaneous flowing CSF was collected. Only clear CSF samples with no sign of blood contamination or discoloration were included in this study since patency of the cannula was eventually compromised. In parallel ∼10–20 μL blood from a small incision of the tip of the tail was collected in heparin (Sigma-Aldrich) containing tubes. CSF and blood was collected at different time points after intravenous injection of the T7 bacteriophages. Prior to collecting every CSF sample ∼5–10 μL of fluid was discarded, which represents the catheter dead volume.
The amplified phages underwent 2–3 rounds of endotoxin removal using endotoxin removal beads (Miltenyi Biotec) before intravenous (i.v.) injection (500 ul/animal). 2 × 10^12 phages were injected in the first, 2 × 10^10 phages were injected in the second and 2 × 10^9 phages were injected per animal in the third and fourth round of selection. The phage contents in the CSF and blood samples harvested at the indicated time-points were determined by a plaque counting assay according to the manufacturer’s instructions (T7Select System Manual). Phage selection was carried out by i.v. tail vein injection of the purified library or by re-injection of the CSF recovered phages of the previous selection round, and 10 min, 30 min, 60 min, 90 min, 120 min, 180 min respectively 240 min later CSF and blood samples were collected. A total of four rounds of in vivo panning were performed in which two selection branches were kept and analyzed separately during the first three selection rounds. All CSF recovered phage inserts of the first two selection rounds were subjected to 454/Roche pyrosequencing whereas all CSF recovered clones of the last two selection rounds were manually sequenced. All blood harvested phages of the first selection round were also 454/Roche pyrosequenced. For the injection of the phage clones the selected phages were amplified in E. coli (BL5615) on 500 cm^2 plates at 37 °C for 4 hours. The individually picked and manually sequenced clones were amplified in TB medium. After phage extraction, purification and endotoxin removal steps (described above) 2 × 10^10 phages/animal in 300 μl were i.v. injected into one tail vein.
Supplementary Figure 3 – Pharmacokinetic profiles of wt T7 phage in the CSF and blood
compartments. Determination of the clearance of wt phage from the blood and their occurrence in
the CSF compartment over time. […]

[3] = system: brain capillaries; test: Immunohistochemistry of phage particles in rat brain 1 hour after i.v. injection; type: in vivo; conditions: 2 × 10^10 phage/animal, FITC anti-T7 antibody
Protocol: Selected phage clones and insertless phage were i.v. injected via tail vein (2 × 10^10 phage/animal in 300 μl PBS). 10 minutes before perfusion and subsequent fixation 100 ul DyLight594 labeled lectin (Vector Laboratories Inc., DL-1177) was i.v. injected into the same animals. 60 minutes after phage administration rats were perfused through the heart with 50 ml PBS followed by 50 ml 4% PFA/PBS. Brain samples were additionally fixed by 4% PFA/PBS overnight and immersed in 30% sucrose at 4 °C overnight. Samples were frozen quickly in O.C.T. compound. Frozen samples were subject to immunohistochemistry, performed on 30 um freezing sections blocked with 1% BSA for 2 hours at room temperature and incubated with a polyclonal FITC labeled antibody against the T7 phage (Novus NB 600-376A) overnight at 4 °C. Finally, the sections were then washed 3 times with PBS and observed with a laser confocal microscope (Leica TCS SP5).

[4] = wt T7 phage, 1x10^10 phage i.v., 4 cannulated rats, plaque counting
[5] = wt phage i.v., average over entire sampling period (0–250 minutes)
[6] = 2 × 10^10 phages/animal i.v., CM cannulated rats, result in words

| Sequence | injected dose of wt phage detected in the blood 10 min post i.v. injection ([1]; rat, tail vein i.v., calculated from injected titer and rat blood volume) | half-life in blood (slower first-order clearance after initial rapid drop) [1, 4] [min] | half-life in CSF [2, 4] [min] | CSF phage as percentage of the blood T7 phage titer [2, 5] | CSF phage as percentage of the initially injected phage [2, 5] | CSF phage as percentage of the blood T7 phage titer ([2]; wt phage i.v., average over entire sampling period (0–250 minutes), listed as wt T7 phages) [%] | stability in the blood / plasma half-life compared to other hits [1, 6] | CSF concentration course over the sampling time [2, 6] | CSF titer change during the first 10 minutes [2, 6] | long term CSF profile over 48 hour period ([2]; 2 × 10^10 phages/animal i.v., at least three CM cannulated rats, result in words) | CSF titer relative to empty control phage (#1779) ([2]; 2 × 10^10 phages/animal tail vein i.v., at least 3 CM cannulated rats each) | phage staining in the brain capillaries (IHC) [3] |
| --- | --- | --- | --- | --- | --- | --- | --- | --- | --- | --- | --- | --- |
| PAGISRELVDKL [wt phage, wild-type T7 phage with backbone 12-mer insert …, reference compound] | about 1% | 27.7 | 25.7 | about 1 × 10^−3% | ~4 × 10^−8% | 0.001 |  |  |  |  |  |  |
| RLSSVDSDLSGC [#2077, T7 phage clone displaying …; also synthesized as N-terminally biotinylated transport peptide] |  |  |  |  |  |  | increased stability in the blood; also recorded: prolonged plasma half-life compared to other hits | stabilized at a high level | increased during the first 10 minutes | rapid increase in CSF and a sustainable level | about 1000 fold | strong staining in the brain capillaries |
